We go through ten molecules from patent US11498928B2, “Macrocyclic spiroethers as Mcl-1 inhibitors” (ASCENTAGE PHARMA (SUZHOU) CO., LTD., priority 2019, dated 2022).

The nature of data set [1]: Pharmacokinetic studies in mice (IV and PO). The class given is in vivo. The conditions noted are these: for F: PO 10 mg/kg vs IV 2 mg/kg; for AUC(0-inf) / AUC(0-t) / clearance / half-life / Cmax / MRT last / Vd / Tmax / Vd/F: mouse, plasma; for MRT last: read-out: MRT0-last; for Vd: read-out: Vss; for Vd/F: read-out: Vz/F. As to the method:
Administration: Mice in the IV group was dosed at 2 mg/kg (20% PEG 400+10% Cremophor EL+70% PBS 7.4) via tail vein injection (N=9). Mice in the PO group was dosed at 10 mg/kg (20% PEG 400+10% Cremophor EL+70% PBS 7.4) via oral gavage (N=9). All the mice were fasted overnight before dosing and had free access to food 4 hr post dosing.
Sampling: The animal was restrained manually at the designated time points (0.083, 0.25, 0.5, 1, 2, 4, 6, 8 and 24 hr), approximately 110 μL of blood sample was collected via retro-orbital puncture or cardiac puncture for terminal bleeding under the anesthesia with Isoflurane inhalation into K2EDTA tubes. The blood samples were maintained in wet ice first and centrifuged to obtain plasma (2000 g, 4° C., 5 min) within 15 minutes post sampling. All the plasma samples were stored at approximately −70° C. until analysis.

In the next data set the test system is OPM-2 cells. Put plainly: Cell viability assay (OPM-2 cells), CCK-8. The class given is cell-based. The conditions noted are these: 5% FBS. The method in brief:
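Viability read by CCK-8 absorbance (450 nm, 4 h reagent incubation) after 24 h compound exposure of 20000 OPM-2 cells per well at 37 °C. IC50 fitted by nonlinear regression on vehicle-normalized signal.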

Another data set relates to NCI-H929 cells. Put plainly: Cell viability assay (NCI-H929 cells), CCK-8. The class given is cell-based. The conditions noted are these: 5% FBS. The method in brief: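 Viability of NCI-H929 cells was measured using the Cell Counting Kit-8. After 24 hrs of compound exposure, 10 μL of CCK-8 solution per well was incubated for 1-4 hours, and absorbance was read at 450 nm on a BioTek Synergy 1MF. Readings were normalized to vehicle (DMSO) cells, and IC50 values were derived by nonlinear regression in GraphPad Prism 6.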

Data set [2] addresses T1, Mcl-1 protein (residues 171-323) (Homo sapiens, UniProt Q07820).
T1 construct: Tag-free Mcl-1 protein (residues 171-323) was used in the FP assay
The data set can be described thus: Inhibition of Mcl-1 by fluorescence polarization (FP) competitive binding assay with FAM-Bid tracer. The conditions noted are these: 2 nM FAM-Bid, 20 nM Mcl-1, 30 min. The method in brief:
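Ten-point compound titrations compete against 2 nM fluorescein-Bid for 20 nM Mcl-1 (171-323, untagged). Incubation 30 min RT in PBS buffer with BGG and Triton, 5% DMSO final. mP reduction fitted by sigmoidal nonlinear regression for IC50.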

Setting [3] is: IV 2 mg/kg, read-out: C0/Cmax (C0).
[4] abbreviates: PO 10 mg/kg, read-out: C0/Cmax (Cmax).

Read-outs that look alike come from different tables or passages of the source.

T1 sequence (Q07820 171-323): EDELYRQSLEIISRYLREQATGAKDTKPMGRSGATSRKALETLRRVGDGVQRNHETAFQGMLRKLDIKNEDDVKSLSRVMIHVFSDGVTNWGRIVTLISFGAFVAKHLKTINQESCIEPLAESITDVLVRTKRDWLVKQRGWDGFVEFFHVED

Regarding `COCCO[C@H]1C2=CC(C2)[C@H](C)[C@@H](C)S(=O)(=O)NC(=O)c2ccc3c(c2)N(C[C@@H]2CC[C@H]21)C[C@@]1(CCCc2cc(Cl)ccc21)CO3` (mixture of isomers) [16 (mixture)], the F in data set [1] came to 70.5%. For the same molecule, in data set [1] (IV 2 mg/kg), the AUC(0-inf) is 2440 ng·h/mL, the AUC(0-t) came to 2380 ng·h/mL, the clearance was 13.6 mL/min/kg and the half-life was 1.6 h. In addition, in data set [1] (IV 2 mg/kg), the MRT last was 1.9 h and the Vd amounted to 1.7 L/kg. For the same molecule, the Cmax in data set [1] (setting [3]) amounted to 1260 ng/mL. In data set [1] (PO 10 mg/kg), the total exposure AUC(0-inf) worked out at 8620 ng·h/mL, the AUC(0-t) was found to be 8360 ng·h/mL, the Tmax came to 2 h and the half-life is 4.9 h. Also, in data set [1] (PO 10 mg/kg), the MRT last is 4.5 h and the Vd/F stood at 8.3 L/kg. In data set [1] (setting [4]), the Cmax came out at 1690 ng/mL. This molecule came in with an IC50 with OPM-2 cells (Homo sapiens, OPM-2, 24 h) of 136 nM. The IC50 in the data set with NCI-H929 cells (Homo sapiens, NCI-H929, 24 h) was 37 nM. Further, the IC50 in data set [2] is 9 nM.

In data set [1], `CO[C@H]1C2=CC(C2)[C@H](C)[C@@H](C)S(=O)(=O)NC(=O)c2ccc3c(c2)N(C[C@@H]2CC[C@H]21)C[C@@]1(CCCc2cc(Cl)c(F)cc21)CO3` (single isomer, unassigned) [Cpd. No. 21 (isomer 1)] had an F of 94.1%. In data set [1] (IV 2 mg/kg), the AUC(0-inf) was determined as 8780 ng·h/mL, the AUC(0-t) was 8740 ng·h/mL, the clearance was 3.8 mL/min/kg and the half-life is 3.7 h. Moreover, in data set [1] (IV 2 mg/kg), the MRT last was determined as 2.7 h and the Vd worked out at 0.6 L/kg. The Cmax in data set [1] (setting [3]) was found to be 5160 ng/mL. For the same molecule, in data set [1] (PO 10 mg/kg), the AUC(0-inf) came to 41300 ng·h/mL, the AUC(0-t) is 41200 ng·h/mL, the Tmax was determined as 2 h and the half-life is 2.8 h. In addition, in data set [1] (PO 10 mg/kg), the MRT last amounted to 4.9 h and the Vd/F was 9.9 L/kg. For the same molecule, the Cmax in data set [1] (setting [4]) was found to be 5260 ng/mL. Further, the midpoint of inhibition with OPM-2 cells (Homo sapiens, OPM-2, 24 h), the IC50, lay at 1120 nM. The IC50 with NCI-H929 cells (Homo sapiens, NCI-H929, 24 h) amounted to 1000 nM. For the same molecule, in data set [2], the IC50 turned out to be 6.6 nM.

Regarding `CO[C@H]1C2=CC(C2)[C@H](C)[C@@H](C)S(=O)(=O)NC(=O)c2ccc3c(c2)N(C[C@@H]2CC[C@H]21)C[C@@]1(CCCc2cc(Cl)cc(F)c21)CO3` (single isomer, unassigned) [20 (isomer 1)], the F in data set [1] is 60.2%. In addition, in data set [1] (IV 2 mg/kg), the AUC(0-inf) was 7500 ng·h/mL, the AUC(0-t) stood at 7350 ng·h/mL, the clearance was 4.45 mL/min/kg and the half-life was 6.7 h. Besides, in data set [1] (IV 2 mg/kg), the MRT last was 2.4 h and the Vd came out at 0.8 L/kg. The Cmax in data set [1] (setting [3]) worked out at 6090 ng/mL. In data set [1] (PO 10 mg/kg), the AUC(0-inf) came out at 22600 ng·h/mL, the AUC(0-t) is 22300 ng·h/mL, the Tmax was determined as 1 h and the half-life was 4.9 h. In addition, in data set [1] (PO 10 mg/kg), the MRT last stood at 3.6 h and the Vd/F is 3.1 L/kg. Further, the Cmax in data set [1] (setting [4]) was determined as 4860 ng/mL. Moreover, the IC50 with OPM-2 cells (Homo sapiens, OPM-2, 24 h) was found to be 2690 nM. Moreover, the IC50 in the data set with NCI-H929 cells (Homo sapiens, NCI-H929, 24 h) stood at 2000 nM. The IC50 in data set [2] is 12 nM.

For `CO[C@H]1C2=C[C@@H](C2)[C@H](C)[C@@H](C)S(=O)(=O)NC(=O)c2ccc3c(c2)N(C[C@@H]2CC[C@H]21)C[C@@]1(CCCc2cc(Cl)ccc21)CO3` (single isomer, unassigned) [Cpd. No. 15 (isomer 1)], the F in data set [1] is 84.7%. In data set [1] (IV 2 mg/kg), this molecule gave an AUC(0-inf) of 7870 ng·h/mL, an AUC(0-t) of 7580 ng·h/mL, a clearance of 4.23 mL/min/kg and a half-life of 4.9 h. In data set [1] (IV 2 mg/kg), the MRT last turned out to be 4.8 h and the Vd was 1.5 L/kg. Further, the Cmax in data set [1] (setting [3]) stood at 2740 ng/mL. Besides, in data set [1] (PO 10 mg/kg), the AUC(0-inf) is 33300 ng·h/mL, the AUC(0-t) was found to be 33000 ng·h/mL, the Tmax was found to be 2 h and the half-life is 3.4 h. Also, in data set [1] (PO 10 mg/kg), the MRT last came out at 6.1 h and the Vd/F worked out at 1.5 L/kg. For the same molecule, the Cmax in data set [1] (setting [4]) is 2720 ng/mL. Moreover, the IC50 with OPM-2 cells (Homo sapiens, OPM-2, 24 h) stood at 84 nM. The IC50 in the data set on NCI-H929 cells (Homo sapiens, NCI-H929, 24 h) is 18 nM. The IC50 in data set [2] came to 9.7 nM.

With `CO[C@H]1C2=CC(C2)C(C)(C)CS(=O)(=O)NC(=O)c2ccc3c(c2)N(C[C@@H]2CC[C@H]21)C[C@@]1(CCCc2cc(Cl)ccc21)CO3` (single isomer, unassigned) [Cpd. No. 5 (Isomer 2)], the values for the IC50 (with OPM-2 cells (24 h); with NCI-H929 cells (24 h); in data set [2]) were 5210 nM, 1600 nM and 8.3 nM, respectively.

In the case of `C[C@@H]1[C@@H](C)S(=O)(=O)NC(=O)c2ccc3c(c2)N(C[C@@H]2CC[C@H]2[C@@H](OCc2ccccn2)C2=C[C@H]1C2)C[C@@]1(CCCc2c1ccc(Cl)c2F)CO3` [compound 94, (1S,11′R,12′S,13′R,16′R,16a′R,18a′R,E)-6-chloro-5-fluoro-11′,12′-dimethyl-16′-(pyridin-2-ylmethoxy)-3,4,12′,13′,16′,16a′,17′,18′,18a′,19′-decahydro-1′H,2H,3′H,11′H-spiro[naphthalene-1,2′-[5,7]etheno[13,15]methanocyclobuta[i][1,4]oxazepino[3,4-f][1]thia[2,7]diazacyclohexadecin]-8′(9′H)-one 10′,10′-dioxide], the IC50 with OPM-2 cells (Homo sapiens, OPM-2, 24 h) is 96 nM; in the data set with NCI-H929 cells (Homo sapiens, NCI-H929, 24 h), 200 nM; in data set [2], 48 nM.

Turning to `CO[C@@H]1C2=CC(C2)CC(C)S(=O)(=O)NC(=O)c2ccc3c(c2)N(C[C@@H]2CC[C@H]21)C[C@@]1(CCCc2cc(Cl)ccc21)CO3` (mixture of isomers) [7 (mixture)], the IC50 with OPM-2 cells (Homo sapiens, OPM-2, 24 h) is 5580 nM; with NCI-H929 cells (Homo sapiens, NCI-H929, 24 h) it was 2300 nM; in data set [2], 5.1 nM.

On to `CO[C@@]1(CN2CCN(S(C)(=O)=O)CC2)C2=C[C@@H](C2)[C@H](C)[C@@H](C)S(=O)(=O)NC(=O)c2ccc3c(c2)N(C[C@@H]2CC[C@H]21)C[C@@]1(CCCc2c1ccc(Cl)c2F)CO3` [compound 38, (1S,11′R,12′S,13′R,16′R,16a′R,18a′R,E)-6-chloro-5-fluoro-16′-methoxy-1′,12′-dimethyl-16′-((4-(methylsulfonyl)piperazin-1-yl)methyl)-3,4,12′,13′,16′,16a′,17′,18′,18a′,19′-decahydro-1′H,2H,3′H,11′H-spiro[naphthalene-1,2′-[5,7]etheno[13,15]methanocyclobuta[i][1,4]oxazepino[3,4-f][1]thia[2,7]diazacyclohexadecin]-8′(9′H)-one 10′,10′-dioxide], for which the IC50 with OPM-2 cells (Homo sapiens, OPM-2, 24 h) was 30 nM; in the data set with NCI-H929 cells (Homo sapiens, NCI-H929, 24 h), 50 nM; in data set [2], 15 nM.

In the case of `C[C@@H]1[C@@H](C)S(=O)(=O)NC(=O)c2ccc3c(c2)N(C[C@@H]2CC[C@H]2[C@@H](OCCN2CCS(=O)(=O)CC2)C2=C[C@H]1C2)C[C@@]1(CCCc2c1ccc(Cl)c2F)CO3` [compound 88, (1S,11′R,12′S,13′R,16′R,16a′R,18a′R,E)-6-chloro-16′-(2-(1,1-dioxidothiomorpholino)ethoxy)-5-fluoro-11′,12′-dimethyl-3,4,12′,13′,16′,16a′,17′,18′,18a′,19′-decahydro-1′H,2H,3′H,11′H-spiro[naphthalene-1,2′-[5,7]etheno[13,15]methanocyclobuta[i][1,4]oxazepino[3,4-f][1]thia[2,7]diazacyclohexadecin]-8′(9′H)-one 10′,10′-dioxide], the IC50 in the data set on OPM-2 cells (Homo sapiens, OPM-2, 24 h) turned out to be 118 nM; in the data set on NCI-H929 cells (Homo sapiens, NCI-H929, 24 h) it was 40 nM; in data set [2], 13 nM.

In the case of `CCO[C@@]1(CN2CCN3CCOC[C@H]3C2)C2=C[C@@H](C2)[C@H](C)[C@@H](C)S(=O)(=O)NC(=O)c2ccc3c(c2)N(C[C@@H]2CC[C@H]21)C[C@@]1(CCCc2c1ccc(Cl)c2F)CO3` [compound 45, (1S,11′R,12′S,13′R,16′R,16a′R,18a′R,E)-6-chloro-16′-ethoxy-5-fluoro-16′-(((R)-hexahydropyrazino[2,1-c][1,4]oxazin-8(1H)-yl)methyl)-11′,12′-dimethyl-3,4,12,′13′,16′,16a′,17′,18′,18a′,19′-decahydro-1′H,2H,3′H,11′H-spiro[naphthalene-1,2′-[5,7]etheno[13,15]methanocyclobuta[i][1,4]oxazepino[3,4-f][1]thia[2,7]diazacyclohexadecin]-8′(9′H)-one 10′,10′-dioxide], the IC50 in the data set with OPM-2 cells (Homo sapiens, OPM-2, 24 h) was found to be 105 nM; with NCI-H929 cells (Homo sapiens, NCI-H929, 24 h), 46 nM; in data set [2], 15 nM.
